As usually defined, the IC50 is the concentration that inhibits the measured activity by half. As a reminder, the Cmax is the highest concentration seen after dosing. In general, inhibition in vivo refers to the drop in the measured response relative to a control, in per cent.

For data set [1], the target named is Serine/threonine-protein kinase mTOR (Homo sapiens, UniProt P42345). The data set is described as follows: Inhibition of mTOR (unknown origin).
Data set [2] concerns the target Serine/threonine-protein kinase ATR (Homo sapiens, UniProt Q13535). In words: Inhibition of ATR (unknown origin).
The target in data set [3] is DNA-dependent protein kinase catalytic subunit (Homo sapiens, UniProt P78527). In words: Inhibition of DNAPK (unknown origin).
Data set [4] in a line: Inhibition of PI3K (unknown origin). On the set-up: species or system Homo sapiens.
The target in data set [5] is Serine-protein kinase ATM (Homo sapiens, UniProt Q13315). In words: Inhibition of ATM (unknown origin).
Serine-protein kinase ATM, sequence (Q13315 whole entry): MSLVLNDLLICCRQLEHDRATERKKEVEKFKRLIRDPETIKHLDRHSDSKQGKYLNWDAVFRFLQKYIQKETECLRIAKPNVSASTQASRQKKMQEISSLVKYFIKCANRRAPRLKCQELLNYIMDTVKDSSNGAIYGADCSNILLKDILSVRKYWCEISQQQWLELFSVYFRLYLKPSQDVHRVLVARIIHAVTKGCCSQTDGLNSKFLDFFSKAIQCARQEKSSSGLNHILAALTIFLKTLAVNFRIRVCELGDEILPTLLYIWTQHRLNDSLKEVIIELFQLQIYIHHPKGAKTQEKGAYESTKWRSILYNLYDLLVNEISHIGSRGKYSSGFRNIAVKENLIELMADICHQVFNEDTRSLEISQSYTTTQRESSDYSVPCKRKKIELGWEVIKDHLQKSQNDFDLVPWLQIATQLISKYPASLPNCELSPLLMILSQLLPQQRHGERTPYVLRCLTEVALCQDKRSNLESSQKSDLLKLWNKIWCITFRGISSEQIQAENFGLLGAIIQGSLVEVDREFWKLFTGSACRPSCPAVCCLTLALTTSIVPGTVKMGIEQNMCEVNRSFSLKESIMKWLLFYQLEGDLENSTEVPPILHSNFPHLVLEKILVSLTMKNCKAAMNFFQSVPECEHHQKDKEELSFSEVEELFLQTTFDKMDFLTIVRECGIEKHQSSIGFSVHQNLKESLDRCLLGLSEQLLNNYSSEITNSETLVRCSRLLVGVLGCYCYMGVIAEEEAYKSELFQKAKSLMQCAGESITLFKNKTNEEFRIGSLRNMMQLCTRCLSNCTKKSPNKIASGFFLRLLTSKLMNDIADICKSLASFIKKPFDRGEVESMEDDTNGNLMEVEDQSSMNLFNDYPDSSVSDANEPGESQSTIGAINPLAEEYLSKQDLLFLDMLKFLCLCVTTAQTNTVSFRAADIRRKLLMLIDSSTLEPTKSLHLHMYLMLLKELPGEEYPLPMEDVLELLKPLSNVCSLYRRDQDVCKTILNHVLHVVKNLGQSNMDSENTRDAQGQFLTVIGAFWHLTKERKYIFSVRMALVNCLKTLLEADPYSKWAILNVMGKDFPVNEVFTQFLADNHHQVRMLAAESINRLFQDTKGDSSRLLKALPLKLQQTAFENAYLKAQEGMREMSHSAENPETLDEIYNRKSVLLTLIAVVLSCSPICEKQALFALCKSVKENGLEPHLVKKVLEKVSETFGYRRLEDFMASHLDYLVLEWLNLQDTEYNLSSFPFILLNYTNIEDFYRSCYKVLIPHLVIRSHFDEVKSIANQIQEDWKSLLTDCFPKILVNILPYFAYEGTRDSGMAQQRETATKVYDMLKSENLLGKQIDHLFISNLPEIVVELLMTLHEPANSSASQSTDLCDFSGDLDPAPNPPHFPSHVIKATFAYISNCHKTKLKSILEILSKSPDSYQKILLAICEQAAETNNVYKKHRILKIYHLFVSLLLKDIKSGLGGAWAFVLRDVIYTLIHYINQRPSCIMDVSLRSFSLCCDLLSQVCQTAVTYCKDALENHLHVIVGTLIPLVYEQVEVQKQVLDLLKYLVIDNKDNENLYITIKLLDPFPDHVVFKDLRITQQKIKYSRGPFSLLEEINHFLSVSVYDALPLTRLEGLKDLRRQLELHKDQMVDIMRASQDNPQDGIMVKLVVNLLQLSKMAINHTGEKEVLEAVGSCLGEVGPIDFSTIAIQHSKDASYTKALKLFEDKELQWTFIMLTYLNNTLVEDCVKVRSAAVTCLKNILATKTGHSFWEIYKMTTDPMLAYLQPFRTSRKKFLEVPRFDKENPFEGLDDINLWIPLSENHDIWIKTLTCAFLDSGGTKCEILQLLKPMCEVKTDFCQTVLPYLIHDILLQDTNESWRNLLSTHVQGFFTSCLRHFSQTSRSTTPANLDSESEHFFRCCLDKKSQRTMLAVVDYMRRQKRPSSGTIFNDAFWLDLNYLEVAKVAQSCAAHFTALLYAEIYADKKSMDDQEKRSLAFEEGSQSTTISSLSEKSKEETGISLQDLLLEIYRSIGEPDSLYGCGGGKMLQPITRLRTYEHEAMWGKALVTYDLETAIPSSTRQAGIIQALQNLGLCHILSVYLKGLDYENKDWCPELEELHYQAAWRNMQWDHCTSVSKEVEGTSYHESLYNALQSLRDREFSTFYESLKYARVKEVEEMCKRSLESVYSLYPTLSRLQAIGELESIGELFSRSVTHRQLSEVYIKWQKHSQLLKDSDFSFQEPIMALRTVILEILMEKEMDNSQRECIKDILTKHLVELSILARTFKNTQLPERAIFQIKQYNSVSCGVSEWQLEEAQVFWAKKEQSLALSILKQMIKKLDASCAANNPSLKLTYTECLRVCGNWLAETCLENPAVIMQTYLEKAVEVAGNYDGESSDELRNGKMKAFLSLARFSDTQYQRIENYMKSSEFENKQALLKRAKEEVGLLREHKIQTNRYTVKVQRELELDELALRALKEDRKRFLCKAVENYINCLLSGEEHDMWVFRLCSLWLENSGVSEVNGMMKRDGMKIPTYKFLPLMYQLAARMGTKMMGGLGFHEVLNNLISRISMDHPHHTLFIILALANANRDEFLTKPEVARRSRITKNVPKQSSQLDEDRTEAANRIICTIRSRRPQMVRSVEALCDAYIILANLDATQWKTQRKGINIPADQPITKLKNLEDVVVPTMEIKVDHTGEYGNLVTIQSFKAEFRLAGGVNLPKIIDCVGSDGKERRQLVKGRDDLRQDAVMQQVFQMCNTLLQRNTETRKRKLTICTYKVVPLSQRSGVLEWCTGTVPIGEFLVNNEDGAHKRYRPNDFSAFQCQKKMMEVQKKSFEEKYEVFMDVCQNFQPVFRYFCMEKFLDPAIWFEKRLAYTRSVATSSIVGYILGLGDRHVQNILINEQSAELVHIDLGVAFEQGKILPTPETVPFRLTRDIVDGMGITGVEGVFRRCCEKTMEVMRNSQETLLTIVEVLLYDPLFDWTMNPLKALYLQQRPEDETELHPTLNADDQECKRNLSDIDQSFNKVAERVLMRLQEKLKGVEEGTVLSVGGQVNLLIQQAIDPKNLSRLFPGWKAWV
Data set [6] is filed under the species Homo sapiens. The data set is described as follows: Toxicity in patient with refractory acute leukemia. It is filed as organism-based. The settings on record: in vivo.
Data set [7] can be described thus: Cmax in BRCA mutation carrying cancer patient with sporadic cancer. The settings on record: human, in vivo.
The nature of data set [8]: Terminal half life in BRCA mutation carrying cancer patient with sporadic cancer. The settings on record: human, in vivo.
Data set [9] relates to Homo sapiens. The data set is described as follows: Toxicity in advanced breast cancer patient with BRCA1/2 mutations assessed as maximum tolerated dose for twice daily dosing. It is filed as organism-based. The following applies: in vivo.
Data set [10] is described as follows: Cmax in advanced breast cancer patient with BRCA1/2 mutations at 400 mg dosed twice daily. It is filed as ADME, organism-based. On the set-up: dose 400 mg. The following applies: human, in vivo.
Data set [11] deals with Homo sapiens. In words: In vivo inhibition of PARP activity in peripheral blood mononuclear cells of advanced breast cancer patient with BRCA1/2 mutations at 400 mg dosed twice daily. It is filed as functional.
The subject of data set [12] is Homo sapiens. In words: In vivo inhibition of PARP activity in tumor tissue of advanced breast cancer patient with BRCA1/2 mutations at 400 mg dosed twice daily. It is filed as functional.
Data set [13] can be described thus: Terminal half life in advanced breast cancer patient with BRCA1/2 mutations at 400 mg dosed twice daily. It is filed as ADME, organism-based. The following applies: human, in vivo, read-out: beta t1/2 (converted).
The species named for data set [14] is Homo sapiens. In words: Toxicity in patient with solid tumor co-treated with 500 mg/m2 pemetrexed. The settings on record: in vivo. It is filed as organism-based.
Data set [15] relates to Homo sapiens. In words: In vivo inhibition of PARP activity in peripheral blood mononuclear cells of advanced solid tumor patient at 12 mg/m2 co-treated with rucaparib and temzolomide. It is filed as functional.
Data set [16] in a line: Half life in refractory solid tumor and lymphoma patient. The settings on record: human, in vivo.
Data set [17] deals with Homo sapiens. In words: Toxicity in refractory solid tumor and lymphoma patient at 10 mg dosed twice daily on days 1 to 5 in 21-day cycles co-treated with 50 mg cyclophosphamide once daily administered on days 1 to 5. It is filed as organism-based. The following applies: in vivo.
For data set [18], the system named is Homo sapiens. In words: Toxicity in refractory solid tumor and lymphoma patient at 10 mg dosed twice daily on days 1 to 5 in 21-day cycles co-treated with 0.6 mg/m2/day, iv topotecan administered on days 1 to 5. It is filed as organism-based. The settings on record: in vivo.
Data set [19] concerns Homo sapiens. The data set is described as follows: In vivo inhibition of PARP activity in peripheral blood mononuclear cells of refractory solid tumor and lymphoma patient at 10 mg dosed twice daily on days 1 to 5 in 21-day cycles co-treated with 50 mg cyclophosphamide once daily administered on days 1 to 5. It is filed as functional.
Data set [20] relates to Homo sapiens. In words: In vivo inhibition of PARP activity in tumor tissue of refractory solid tumor and lymphoma patient at 10 mg dosed twice daily on days 1 to 5 in 21-day cycles co-treated with 50 mg cyclophosphamide once daily administered on days 1 to 5. It is filed as functional.

For the compound `CC(C)(C#N)c1ccc(N2C(=O)OCc3cnc4ccc(-c5cnc6ccccc6c5)cc4c32)cc1`, the IC50 is 0.0006 µM in data set [1]; 0.014 µM in [2]; more than 0.036 µM in data set [3]; more than 0.036 µM in data set [4]; more than 0.036 µM in data set [5].

`Cn1cc(C2C=NN3C(N)=C(Br)C([C@@H]4CCCNC4)=NC23)cn1` (stereo not given in full): the MTD in data set [6] was 56 mg/m2.

Turning to `NC(=O)c1cccc2cn(-c3ccc([C@@H]4CCCNC4)cc3)nc12` [NIRAPARIB], in data set [7], the Cmax worked out at 2 µM. Also, in data set [8], the half-life is 36.4 h.

With `O=C(c1cc(Cc2n[nH]c(=O)c3ccccc23)ccc1F)N1CCN(C(=O)C2CC2)CC1` [OLAPARIB], in data set [9], the MTD is 400 mg. The same compound registered a Cmax in [10] of 2.6 µg/mL. The “inhibition (INH)” value came out at 50% in data set [11] and 70% in data set [12]. The half-life in [13] was 7 h.

As to `Cc1cnc(NC(=O)Nc2cc(Br)c(C)cc2OC[C@@H]2CNCCO2)cn1` [RABUSERTIB], in [14], the MTD is given as 150 mg/m2.

On to `CNCc1ccc(-c2[nH]c3cc(F)cc4c3c2CCNC4=O)cc1` [RUCAPARIB], for which the inhibition in vivo at 12 mg/m2 in data set [15] was found to be 74%.

In data set [16], `C[C@]1(c2nc3c(C(N)=O)cccc3[nH]2)CCCN1` [VELIPARIB] had a half-life of 5 h. Also, the MTD in data set [17] and in [18] was 60 mg throughout. Besides, the “inhibition (INH)” value in data set [19] is 50%; in data set [20], 80%.

The values above are taken from ChEMBL document CHEMBL3352686, “Development of synthetic lethality anticancer therapeutics” (J Med Chem, 2014).
